Measurements: PMC12484987 (Scientific Reports, 2025)
“And” between values parts separate entries of the source, which are not always exact repeats. Identical values can stand only once. Like-named read-outs stand apart in the source and are kept apart here.

Experiments:
[1] = tested on: MRC-5 (normal embryonic lung cell); conditions: for Percentage cytotoxicity: MRC-5, at maximum tested concentration of 50 µg/mL; for toxicity toward normal embryonic lung cells (MRC-5), in words: MRC-5, up to 50 µg/mL
[2] = tested on: MOLT-3 (Acute lymphoblastic leukemia); assay: cells; conditions: Homo sapiens, MOLT-3, 48 h, read-out: IC50 cytotoxic activity
HIV-1 RT [3] = target: T1, HIV-1 RT (Human immunodeficiency virus type 1 group M subtype B, UniProt P04585); assay: HIV-1 RT inhibition assay; format: biochemical
in vitro = conditions: human, MRC-5 cells (normal embryonic lung cells)
A549 (Lung carcinoma) [4] = conditions: for Percentage cytotoxicity: A549, at maximum tested concentration of 50 µg/mL; for Selectivity index SI = IC50(normal cell)/IC50(cancer cell line): MRC-5 vs A549
A549 (Lung carcinoma) [5] = assay: cells; conditions: Homo sapiens, A549, 48 h, read-out: IC50 cytotoxic activity
S102 (Thai liver cancer) [6] = assay: cells; conditions: Homo sapiens, 48 h, read-out: IC50 cytotoxic activity
[7] = tested on: MDA-MB-231 (Hormone-independent breast cancer); conditions: for Selectivity index SI = IC50(normal cell)/IC50(cancer cell line): MRC-5 vs MDA-MB-231; for Percentage cytotoxicity: MDA-MB-231, at maximum tested concentration of 50 µg/mL
HL-60 (promyeloblast) [8] = conditions: for Selectivity index SI = IC50(normal cell)/IC50(cancer cell line): MRC-5 vs HL-60; for Percentage cytotoxicity: HL-60, at maximum tested concentration of 50 µg/mL
S102 (Thai liver cancer) [9] = conditions: for Selectivity index SI = IC50(normal cell)/IC50(cancer cell line): MRC-5 vs S102; for Percentage cytotoxicity: S102, at maximum tested concentration of 50 µg/mL
[10] = tested on: HeLa (Cervical carcinoma); conditions: for Selectivity index SI = IC50(normal cell)/IC50(cancer cell line): MRC-5 vs HeLa; for Percentage cytotoxicity: HeLa, at maximum tested concentration of 50 µg/mL
[11] = tested on: HuCCA-1 (Cholangiocarcinoma); assay: cells; conditions: Homo sapiens, HuCC-A1, 48 h, read-out: IC50 cytotoxic activity
[12] = tested on: T47-D (Hormone-dependent breast cancer); conditions: for Selectivity index SI = IC50(normal cell)/IC50(cancer cell line): MRC-5 vs T47-D; for Percentage cytotoxicity: T47-D, at maximum tested concentration of 50 µg/mL
HepG2 (Hepatocarcinoma) [13] = conditions: for Selectivity index SI = IC50(normal cell)/IC50(cancer cell line): MRC-5 vs HepG2; for Percentage cytotoxicity: HepG2, at maximum tested concentration of 50 µg/mL
[14] = tested on: MDA-MB-231 (Hormone-independent breast cancer); assay: cells; conditions: Homo sapiens, MDA-MB-231, 48 h, read-out: IC50 cytotoxic activity
HepG2 (Hepatocarcinoma) [15] = assay: cells; conditions: Homo sapiens, HepG2, 48 h, read-out: IC50 cytotoxic activity
[16] = tested on: MOLT-3 (Acute lymphoblastic leukemia); conditions: for Selectivity index SI = IC50(normal cell)/IC50(cancer cell line): MRC-5 vs MOLT-3; for Percentage cytotoxicity: MOLT-3, at maximum tested concentration of 50 µg/mL
[17] = tested on: HeLa (Cervical carcinoma); assay: cells; conditions: Homo sapiens, 48 h, read-out: IC50 cytotoxic activity
HL-60 (promyeloblast) [18] = assay: cells; conditions: Homo sapiens, HL-60, 48 h, read-out: IC50 cytotoxic activity
[19] = tested on: T47-D (Hormone-dependent breast cancer); assay: cells; conditions: Homo sapiens, T47D, 48 h, read-out: IC50 cytotoxic activity
[20] = tested on: H69AR (Lung cancer, multidrug resistance); conditions: for Selectivity index SI = IC50(normal cell)/IC50(cancer cell line): MRC-5 vs H69AR; for Percentage cytotoxicity: H69AR, at maximum tested concentration of 50 µg/mL
[21] = tested on: HuCCA-1 (Cholangiocarcinoma); conditions: for Selectivity index SI = IC50(normal cell)/IC50(cancer cell line): MRC-5 vs HuCCA-1; for Percentage cytotoxicity: HuCCA-1, at maximum tested concentration of 50 µg/mL
[22] = tested on: H69AR (Lung cancer, multidrug resistance); assay: cells; conditions: Homo sapiens, 48 h, read-out: IC50 cytotoxic activity
HIV-1 RT [23] = target: T1, HIV-1 RT; conditions: cited from earlier work

SMILES | Percentage cytotoxicity [1] | IC50 [2] | IC50 at 48 h (in vitro) | IC50 (A549 (Lung carcinoma) [5]) | IC50 (S102 (Thai liver cancer) [6]) | Selectivity index SI = IC50(normal cell)/IC50(cancer cell line) [7] | Selectivity index SI = IC50(normal cell)/IC50(cancer cell line) (HL-60 (promyeloblast) [8]) | Selectivity index SI = IC50(normal cell)/IC50(cancer cell line) (S102 (Thai liver cancer) [9]) | Selectivity index SI = IC50(normal cell)/IC50(cancer cell line) [10] | IC50 [11] | Selectivity index SI = IC50(normal cell)/IC50(cancer cell line) [12] | Selectivity index SI = IC50(normal cell)/IC50(cancer cell line) (HepG2 (Hepatocarcinoma) [13]) | IC50 [14] | Selectivity index SI = IC50(normal cell)/IC50(cancer cell line) (A549 (Lung carcinoma) [4]) | IC50 (HepG2 (Hepatocarcinoma) [15]) | Selectivity index SI = IC50(normal cell)/IC50(cancer cell line) [16] | IC50 [17] | IC50 (HL-60 (promyeloblast) [18]) | IC50 [19] | IC50 [22] | also measured
Cc1cc(/C=C/C#N)cc(C)c1Nc1ccnc(Nc2ccc(C#N)cc2)n1 [RPV, rilpivirine, reference compound] | 14% | 4.3 ± 0.5 µM | > 137 µM | > 137 µM | – | – | – | – | – | – | – | – | – | – | – | – | – | – | – | – | IC50 (HIV-1 RT [3]): 0.063 µM; inhibition at 1 µM (HIV-1 RT [3]; read-out: Inhibitory activity (%) against HIV-1 RT): 97.1%; Percentage cytotoxicity (A549 (Lung carcinoma) [4]): 42%
COc1cccc2c1C(=O)c1c(O)c3c(c(O)c1C2=O)C[C@@](O)(C(=O)CO)C[C@@H]3O[C@H]1C[C@H](N)[C@H](O)[C@H](C)O1 [doxorubicin, reference compound] | – | 0.02 µM | 3.1 ± 0.5 µM | 0.6 ± 0.1 µM | 2.2 µM | 1.24 | 31 | 1.41 | 7.75 | 0.9 ± 0.1 µM | 2.58 | 5.17 | 2.5 ± 0.1 µM | 5.17 | 0.6 ± 0.02 µM | 155 | 0.4 µM | 0.1 µM | 1.2 µM | – | Selectivity index SI = IC50(normal cell)/IC50(cancer cell line) [20]: 0.09; Selectivity index SI = IC50(normal cell)/IC50(cancer cell line) [21]: 3.44
Cc1ccnc2c1NC(=O)c1cccnc1N2C1CC1 [NVP, nevirapine, reference compound] | 1% | > 188 µM | > 188 µM | > 188 µM | > 188 µM | – | – | – | – | > 188 µM | – | – | > 188 µM | – | > 188 µM | – | > 188 µM | > 188 µM | > 188 µM | > 188 µM | Percentage cytotoxicity [7]: 9%; Percentage cytotoxicity (HL-60 (promyeloblast) [8]): 3%; Percentage cytotoxicity (S102 (Thai liver cancer) [9]): 3%; Percentage cytotoxicity [10]: 34%; Percentage cytotoxicity [12]: 14%; Percentage cytotoxicity (HepG2 (Hepatocarcinoma) [13]): 15%; Percentage cytotoxicity (A549 (Lung carcinoma) [4]): 18%; Percentage cytotoxicity [16]: 29%; Percentage cytotoxicity [20]: 8%; Percentage cytotoxicity [21]: 11%
Cc1cc(C=O)cc(C)c1Oc1cc(Oc2c(C)cc(C=O)cc2C)c2ccncc2n1 [Compound 14a, 2,4-di-(2ˊ,6ˊ-dimethyl-4ˊ-formylphenoxy)−1,7-naphthyridine] | – | 9.6 ± 1.1 µM | 65.3 ± 2.1 µM | 60.8 ± 1 µM | 67.6 ± 2.2 µM | 1.32 | 6.28 | 0.97 | 5.35 | 21.7 ± 1.6 µM | 2.50 | 1.21 | 49.4 ± 6.7 µM | 1.07 | 53.9 ± 3.4 µM | 6.80 | 12.2 ± 0.7 µM | 10.4 ± 0.8 µM | 26.1 ± 5 µM | 52.2 ± 1.6 µM | Selectivity index SI = IC50(normal cell)/IC50(cancer cell line) [20]: 1.25; Selectivity index SI = IC50(normal cell)/IC50(cancer cell line) [21]: 3.01
Cc1cc(C#N)cc(C)c1Oc1cc(Nc2ccc(C#N)cn2)nc2ccccc12 [4-(2’,6’-dimethyl-4’-cyanophenoxy)−2-(5’’-cyanopyridin-2’’ylamino)quinoline] | – | – | – | – | – | – | – | – | – | – | – | – | – | – | – | – | – | – | – | – | percentage inhibition against HIV-1 RT (HIV-1 RT [23]; quinolines of the previous publication): 45% and 45.1%; IC50 (HIV-1 RT [23]; read-out: IC50 against HIV-1 RT, quinolines of the previous publication): 1.22 µM
O=C1Nc2ccc(Cl)cc2[C@@](C#CC2CC2)(C(F)(F)F)O1 [EFV, efavirenz, reference compound] | – | – | 95.6 ± 6 µM | – | – | – | – | – | – | – | – | – | – | – | – | – | – | – | – | – | –
Cc1cc(C=O)cc(C)c1Oc1cc(Oc2c(C)cc(C=O)cc2C)c2cnccc2n1 [Compound 13a, 2,4-di-(2ˊ,6ˊ-dimethyl-4ˊ-formylphenoxy)−1,6-naphthyridine] | – | 11.3 ± 2.7 µM | 68.1 ± 1.1 µM | 107 ± 2.6 µM | 69.8 ± 2.8 µM | 1.21 | 3.98 | 0.98 | 2.83 | 42.2 ± 2.6 µM | 1.90 | 1.12 | 56.3 ± 3.7 µM | 0.64 | 60.7 ± 1 µM | 6.03 | 24.1 ± 0.4 µM | 17.1 ± 2.4 µM | 35.9 ± 2.1 µM | 91.8 ± 2.9 µM | Selectivity index SI = IC50(normal cell)/IC50(cancer cell line) [20]: 0.74; Selectivity index SI = IC50(normal cell)/IC50(cancer cell line) [21]: 1.61
Cc1cc(C#N)cc(C)c1Oc1cc(Oc2c(C)cc(C#N)cc2C)c2ccncc2n1 [Compound 14b, 2,4-di-(2ˊ,6ˊ-dimethyl-4ˊ-cyanophenoxy)−1,7-naphthyridine] | 0% | > 119 µM | > 119 µM | > 119 µM | > 119 µM | – | – | – | – | > 119 µM | – | – | > 119 µM | – | > 119 µM | – | > 119 µM | > 119 µM | > 119 µM | > 119 µM | Percentage cytotoxicity [7]: 22%; toxicity toward normal embryonic lung cells (MRC-5), in words [1]: non-toxic; Percentage cytotoxicity (HL-60 (promyeloblast) [8]): 24%; Percentage cytotoxicity (S102 (Thai liver cancer) [9]): 6%; Percentage cytotoxicity [10]: 24%; Percentage cytotoxicity [12]: 0%; Percentage cytotoxicity (HepG2 (Hepatocarcinoma) [13]): 34%; Percentage cytotoxicity (A549 (Lung carcinoma) [4]): 8%; Percentage cytotoxicity [16]: 16%; Percentage cytotoxicity [20]: 0%; Percentage cytotoxicity [21]: 0%
COc1cc([C@@H]2c3cc4c(cc3[C@@H](O[C@@H]3O[C@@H]5CO[C@@H](C)O[C@H]5[C@H](O)[C@H]3O)[C@H]3COC(=O)[C@H]23)OCO4)cc(OC)c1O [etoposide, reference compound] | – | 0.03 ± 0.02 µM | – | – | – | – | – | – | – | – | – | – | – | – | – | – | – | 0.8 ± 0.1 µM | – | – | –
N#Cc1ccc(Nc2cc(Oc3ccc(C#N)cc3)c3ccccc3n2)cc1 [4-(4’-cyanophenoxy)−2-(4’’-cyanophenyl)-aminoquinoline] | – | – | – | – | – | – | – | – | – | – | – | – | – | – | – | – | – | – | – | – | percentage inhibition against HIV-1 RT (HIV-1 RT [23]; previous study): 39.71%
Cc1cc(C#N)cc(C)c1Oc1cc(Oc2c(C)cc(C#N)cc2C)c2cnccc2n1 [Compound 13b, 2,4-di-(2ˊ,6ˊ-dimethyl-4ˊ-cyanophenoxy)−1,6-naphthyridine] | 43% | 11.3 ± 2.2 µM | > 119 µM | 36.1 ± 0.6 µM | 103 ± 4.4 µM | > 1.62 | > 1.46 | > 1.15 | > 4.87 | 32.4 ± 2.7 µM | > 3.49 | > 1.59 | 73.2 ± 8.1 µM | > 3.29 | 74.7 ± 13.3 µM | > 10.52 | 24.4 ± 2.5 µM | 81.5 ± 19.5 µM | 34.1 ± 2.2 µM | 76 ± 6.54 µM | toxicity toward normal embryonic lung cells (MRC-5), in words [1]: non-toxic; Selectivity index SI = IC50(normal cell)/IC50(cancer cell line) [20]: > 1.56; Selectivity index SI = IC50(normal cell)/IC50(cancer cell line) [21]: > 3.67
